Assay results: patent US20250235450A1, “COMBINATION THERAPIES COMPRISING APREMILAST AND TYK2 INHIBITORS” (Celgene Corporation, priority 2019, published 2025)
“Also recorded” adds a separate entry of the source.

How the values were obtained:
[1] = test system: LPS stimulated PBMCs; assay: Viability of LPS stimulated PBMCs; assay type: cell-based, human; set-up: key: ↑: Induced; —: No change; ↓: Reduced
[2] = test system: LPS stimulated PBMCs; assay: Cytokine production in LPS stimulated PBMCs; assay type: cell-based, human; set-up: key to IL-2 / IFNα2 / IFSNβ / IL-4 / IL-5 / IL-6 / IL-10 / IL-13 / IL-15 / IL-17 / IL-22 / IL-1β / IL-1ra / IL-23 / IL-12p40 / IL-12p70 / TNF-α / IFNγ / MCP-1 / GM-CSF / G-CSF: ↑: Induced; —: No change; ↓: Reduced; conditions: for effect on IFN-γ production / effect on IL-12p40 production / effect on IL-12p70 production / effect on IL-23 production / effect on MCP-1 production / effect on TNF-α production: vs DMSO control
Experimental: Peripheral blood mononuclear cells (PBMCs) isolation: Whole blood was received through the Celgene Donor program after informed consent and donor deidentification. All volunteers were healthy and were not on any medications for at least 72 hours prior to the blood draw. Blood was collected in Sodium Heparin tubes and were used within 2 hours of the blood draw for PBMCs isolation. Before PBMCs isolation, whole blood was diluted 1:1 with PBS solution containing 2% FBS (2% FBS-PBS). 13 ml of Ficoll-Paque solution was loaded in the SepMate® tube and 25 ml of diluted blood was loaded on top of the Ficoll-Paque. Centrifugation at 1200 g for 15 minutes with the brake on for cell separation, after which isolated PBMCs were transferred into a new tube. PBMCs were washed with 2% FBS-PBS and centrifuged at 800 g 10 minutes. Pellets were resuspended in 2% FBS-PBS and filtered through a 40 μm cell strainer to obtain single-cell suspension. 3 ml of RBC lysis buffer were used to eliminate red blood cells in the isolated population. Isolated PBMCs were washed with 2% FBS-PBS and were resuspended in RPMI growth medium containing 10% FBS and antibiotics.
For Example 6-11, PBMCs from 9 healthy donors were isolated and LPS-stimulated ex-vivo for IL-23, IL-12p40, IL-12p70, TNF-α, IFN-γ and MCP-1 cytokine analysis. PBMCs were plated in 96 well plate at a density of 200,000 cells per well in 200 μl of RPMI growth medium containing 10% FBS followed by treatment with DMSO and compounds. Each well received the same amount of DMSO, which is 0.3% v/v as final concentration. Series dilutions of compound treatment was performed according to Table 4 shown below. After two hours of compound treatment, LPS 100 ng/ml as final concentration was used as the stimulator. PBMCs were then incubated in a 37° C./5% CO2 incubator for 16 hours.
After 16 hours incubation, supernatants were collected into new 96-well polypropylene plates and centrifuged at 4000 rpm for 10 minutes to get rid of cell debris. Cytokine production was measured by Luminex Bio-Plex Multiplex Immunoassay (Bio-Rad) according to the manufacturer's procedures. To ensure that supernatant level was within the range of the standard cytokine for the assay, samples were diluted 5 fold for IL-12p40 and 27-plex assays, and used neat for IL-23 assay.
Data processing for PBMCs assays was done using Bio-plex manager, and raw data was exported to Excel template for the cytokine analysis. Data was plotted using GraphPad Prism 7.0 (GraphPad Software, Inc., La Jolla, CA) and expressed as % of DMSO control. Statistical analysis was performed using One Way ANOVA and Tukey's multiple comparisons test.
To evaluate the combinatory effect of apremilast and BMS-986165, data from the two independent treatments were analyzed by comparing the combinatory response against the theoretical additive response of the two agents. The expected additive effect of two agents (A and B) was calculated using the fractional product method: (fu)A,B=(fu)A×(fu)B; where fu=fraction unaffected by treatment.

Compound	Viability [1]	G-CSF ([2]; LPS stimulated PBMCs)	GM-CSF ([2]; LPS stimulated PBMCs)	IFNα2 ([2]; LPS stimulated PBMCs)	IFNγ ([2]; LPS stimulated PBMCs)	IFSNβ ([2]; LPS stimulated PBMCs)	IL-1ra ([2]; LPS stimulated PBMCs)	IL-1β ([2]; LPS stimulated PBMCs)	IL-2 ([2]; LPS stimulated PBMCs)	IL-4 ([2]; LPS stimulated PBMCs)	IL-5 ([2]; LPS stimulated PBMCs)	IL-6 ([2]; LPS stimulated PBMCs)	IL-10 ([2]; LPS stimulated PBMCs)	IL-12p40 ([2]; LPS stimulated PBMCs)	IL-12p70 ([2]; LPS stimulated PBMCs)	IL-13 ([2]; LPS stimulated PBMCs)	IL-15 ([2]; LPS stimulated PBMCs)	IL-17 ([2]; LPS stimulated PBMCs)	IL-22 ([2]; LPS stimulated PBMCs)	IL-23 ([2]; LPS stimulated PBMCs)	further results
CCOc1cc([C@@H](CS(C)(=O)=O)N2C(=O)c3cccc(NC(C)=O)c3C2=O)ccc1OC [Apremilast, N-[2-[(1S)-1-(3-ethoxy-4-methoxyphenyl)-2-(methylsulfonyl)ethyl]-2,3-dihydro-1,3-dioxo-1H-isoindol-4-yl]acetamide]	—	↑	↓	—	↓	—	—	—	↓	—	—	—	↑	↓	↓	—	—	—	—	↓	MCP-1 ([2]; LPS stimulated PBMCs): ↓; TNF-α ([2]; LPS stimulated PBMCs): ↓; effect on IL-12 ([2]; LPS stimulated PBMCs): inhibited; effect on IFN-γ production ([2]; LPS stimulated PBMCs): decreased; also recorded: reduced; effect on IL-12p40 production ([2]; LPS stimulated PBMCs): decreased; effect on IL-12p70 production ([2]; LPS stimulated PBMCs): decreased; effect on IL-23 production ([2]; LPS stimulated PBMCs): decreased; also recorded: inhibited; effect on MCP-1 production ([2]; LPS stimulated PBMCs): decreased; also recorded: reduced; effect on TNF-α production ([2]; LPS stimulated PBMCs): decreased; also recorded: inhibited
[2H]C([2H])([2H])NC(=O)c1nnc(NC(=O)C2CC2)cc1Nc1cccc(-c2ncn(C)n2)c1OC [BMS-986165, 6-(cyclopropanecarboxamido)-4-((2-methoxy-3-(1-methyl-1H-1,2,4-triazol-3-yl)phenyl)amino)-N-(methyl-d3)pyridazine-3-carboxamide]	—	↑	↑	—	↓	—	↓	—	—	—	—	—	—	↑	↑	↑	—	—	—	↑↑	increase of IL-23 compared to DMSO group ([2]; 0.2 μM-2 μM BMS-986165): 20 fold; MCP-1 ([2]; LPS stimulated PBMCs): ↓; TNF-α ([2]; LPS stimulated PBMCs): ↑; effect on IL-12 ([2]; LPS stimulated PBMCs): increased; increase of TNF-α ([2]; LPS stimulated PBMCs, BMS-986165 alone): 1.2-1.5 fold; effect on IFN-γ production ([2]; LPS stimulated PBMCs): decreased; also recorded: reduced; effect on IL-12p40 production ([2]; LPS stimulated PBMCs): increased; also recorded: induced; effect on IL-12p70 production ([2]; LPS stimulated PBMCs): increased; also recorded: induced; effect on IL-23 production ([2]; LPS stimulated PBMCs): induced; also recorded: increased; effect on MCP-1 production ([2]; LPS stimulated PBMCs): decreased; also recorded: reduced; effect on TNF-α production ([2]; LPS stimulated PBMCs): induced; also recorded: increased
